From patent US4861788A, “Antibacterial 1-normon-2-yl-heterocyclic compounds” (Beecham Group plc, priority 1983, dated 1989)
Values after ≈ are worked out from the molar mass of the structure shown. Where two headings read alike, the source gives them in different places.

Experiments:
[1] = system: M. hyopneumoniae MS 16; assay: MIC against Mycoplasma in vitro (Friis broth with agarose); assay type: cell-based; conditions: Mesomycoplasma hyopneumoniae, MS16, 144 h; M. hyopneumoniae MS 16; 6 days at 37° C; read-out: MIC
[2] = system: M. hyorhinis ATCC 25021; assay: as above; assay type: cell-based; conditions: Mesomycoplasma hyorhinis, ATCC25021, 144 h; M. hyorhinis ATCC 25021; 6 days at 37° C; read-out: MIC
[3] = system: Staph. aureus Oxford; assay: MIC against veterinary bacteria in vitro (Diagnostic Sensitivity Test Agar); conditions: Staphylococcus aureus, 18 h
Protocol: (§2) The activity of the normonyl derivatives of the Examples against various veterinarily important bacteria, was assayed in vitro using two-fold serial dilutions in Diagnostic Sensitivity Test Agar inoculated with 10^4 organisms.

[4] = system: Strep. uberis SPU1; assay: as above; conditions: Streptococcus uberis, SPU1, 18 h
Protocol: as §2

[5] = system: Staph. aureus B4 (pen. resistant); assay: as above; conditions: Staphylococcus aureus, 18 h
Protocol: as §2

[6] = system: E. coli NCTC 10418; assay: as above; conditions: Escherichia coli, NCTC10418, 18 h
Protocol: as §2

[7] = system: M. dispar NCTC 10125; assay: MIC against Mycoplasma in vitro (Friis broth with agarose); assay type: cell-based; conditions: 144 h; M. dispar NCTC 10125; 6 days at 37° C; read-out: MIC
[8] = system: Bord. bronchiseptica B09; assay: MIC against veterinary bacteria in vitro (Diagnostic Sensitivity Test Agar); conditions: Bordetella bronchiseptica, B09, 18 h
Protocol: as §2

[9] = system: M. hyopneumoniae J2206/183^b; assay: MIC against Mycoplasma in vitro (Friis broth with agarose); assay type: cell-based; conditions: Mesomycoplasma hyopneumoniae, 144 h; M. hyopneumoniae J2206/183^b; 6 days at 37° C; read-out: MIC
[10] = system: M. bovigenitalium ATCC 14173; assay: as above; assay type: cell-based; conditions: 144 h
[11] = system: Corynebacterium xerosis 9755; assay: MIC against human bacteria in vitro (nutrient agar, chocolated horse blood); assay type: cell-based; conditions: human; Corynebacterium xerosis 9755; 18 hours at 37° C; read-out: MIC
Procedure, shortened: (§1)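 Agar dilution series; medium supplemented with 5% chocolated horse blood; MIC taken from the dilution series.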

[12] = system: Strep. spp. 64/848-C; assay: as above; assay type: cell-based; conditions: human; Strep. spp. 64/848-C; 18 hours at 37° C; read-out: MIC
Procedure, shortened: as §1

[13] = system: Ps. aeruginosa NCTC 10662; assay: as above; assay type: cell-based; conditions: Pseudomonas aeruginosa, NCTC10662; human; Ps. aeruginosa NCTC 10662; 18 hours at 37° C; read-out: MIC
Procedure, shortened: as §1

[14] = system: Strep. faecalis I; assay: as above; assay type: cell-based; conditions: Enterococcus faecalis; human; Strep. faecalis I; 18 hours at 37° C; read-out: MIC
Procedure, shortened: as §1

[15] = system: Staph. aureus W2827; assay: as above; assay type: cell-based; conditions: Staphylococcus aureus; human; Staph. aureus W2827; 18 hours at 37° C; read-out: MIC
Procedure, shortened: as §1

[16] = system: Strep. agalactiae 2788-B; assay: as above; assay type: cell-based; conditions: Streptococcus agalactiae; human; Strep. agalactiae 2788-B; 18 hours at 37° C; read-out: MIC
Procedure, shortened: as §1

[17] = system: Staph. aureus Russell; assay: as above; assay type: cell-based; conditions: Staphylococcus aureus; human; Staph. aureus Russell; 18 hours at 37° C; read-out: MIC
Procedure, shortened: as §1

[18] = system: Haemophilus influenzae Wy21; assay: as above; assay type: cell-based; conditions: human; Haemophilus influenzae Wy21; 18 hours at 37° C; read-out: MIC
Procedure, shortened: as §1

[19] = system: P. mirabilis 889; assay: as above; assay type: cell-based; conditions: Proteus mirabilis; human; P. mirabilis 889; 18 hours at 37° C; read-out: MIC
Procedure, shortened: as §1

[20] = system: Strep. pyogenes R80/421-A; assay: as above; assay type: cell-based; conditions: Streptococcus pyogenes; human; Strep. pyogenes R80/421-A; 18 hours at 37° C; read-out: MIC
Procedure, shortened: as §1

[21] = system: K. aerogenes A; assay: as above; assay type: cell-based; conditions: Klebsiella aerogenes; human; K. aerogenes A; 18 hours at 37° C; read-out: MIC
Procedure, shortened: as §1

[22] = system: Staph. aureus Oxford; assay: as above; assay type: cell-based; conditions: Staphylococcus aureus; human; Staph. aureus Oxford; 18 hours at 37° C; read-out: MIC
Procedure, shortened: as §1

[23] = system: E. coli ESS; assay: as above; assay type: cell-based; conditions: Escherichia coli; human; E. coli ESS; 18 hours at 37° C; read-out: MIC
Procedure, shortened: as §1

[24] = system: Pasteurella multocida 1633; assay: as above; assay type: cell-based; conditions: human; Pasteurella multocida 1633; 18 hours at 37° C; read-out: MIC
Procedure, shortened: as §1

[25] = system: E. coli NCTC 10418; assay: as above; assay type: cell-based; conditions: Escherichia coli, NCTC10418; human; E. coli NCTC 10418; 18 hours at 37° C; read-out: MIC
Procedure, shortened: as §1

[26] = system: Sarcina lutea 8340; assay: as above; assay type: cell-based; conditions: Micrococcus luteus; human; Sarcina lutea 8340; 18 hours at 37° C; read-out: MIC
Procedure, shortened: as §1

[27] = system: Bacillus subtilis 6633; assay: as above; assay type: cell-based; conditions: human; Bacillus subtilis 6633; 18 hours at 37° C; read-out: MIC
Procedure, shortened: as §1

[28] = system: M. hyopneumoniae TAM 6N; assay: MIC against Mycoplasma in vitro (Friis broth with agarose); assay type: cell-based; conditions: Mesomycoplasma hyopneumoniae, TAM6N, 144 h; M. hyopneumoniae TAM 6N; 6 days at 37° C; read-out: MIC
[29] = system: Past. haemolytica PA5; assay: MIC against veterinary bacteria in vitro (Diagnostic Sensitivity Test Agar); conditions: Mannheimia haemolytica, PA5, 18 h
Protocol: as §2

[30] = system: M. hyopneumoniae NCTC 101101; assay: MIC against Mycoplasma in vitro (Friis broth with agarose); assay type: cell-based; conditions: Mesomycoplasma hyopneumoniae, NCTC101101, 144 h; M. hyopneumoniae NCTC 101101; 6 days at 37° C; read-out: MIC
[31] = system: M. hyopneumoniae Str. 11; assay: as above; assay type: cell-based; conditions: Mesomycoplasma hyopneumoniae, 144 h; M. hyopneumoniae Str. 11; 6 days at 37° C; read-out: MIC
[32] = system: M. hyopneumoniae JF 435; assay: as above; assay type: cell-based; conditions: Mesomycoplasma hyopneumoniae, JF435, 144 h; M. hyopneumoniae JF 435; 6 days at 37° C; read-out: MIC
[33] = system: E. coli E1; assay: MIC against veterinary bacteria in vitro (Diagnostic Sensitivity Test Agar); conditions: Escherichia coli, E1, 18 h
Protocol: as §2

Structure (SMILES) | MIC [1] | MIC [2] | MIC [3] | MIC [4] | MIC [5] | MIC [6] | MIC [7] | MIC [8] | MIC [9] | MIC [11] | MIC [12] | MIC [13] | MIC [14] | MIC [15] | MIC [16] | MIC [17] | MIC [18] | MIC [19] | MIC [20] | MIC [21] | also measured
CC(=Cc1nc(-c2ccccc2)no1)CC1OCC(CC2OC2C(C)C(C)O)C(O)C1O (stereo not drawn) [Example 15, 5-(1-Normon-2-yl)-3-phenyl-1,2,4-oxadiazole A] | 5 µg/mL (≈ 11.2 µM) | 2.5 µg/mL (≈ 5.62 µM) | 40 µg/mL (≈ 90 µM) | 2.5 µg/mL (≈ 5.62 µM) | 5 µg/mL (≈ 11.2 µM) | > 80 µg/mL | 2.5 µg/mL (≈ 5.62 µM) | 80 µg/mL (≈ 180 µM) | 10 µg/mL (≈ 22.5 µM) | > 128 µg/mL | 64 µg/mL (≈ 144 µM) | > 128 µg/mL | > 128 µg/mL | 32 µg/mL (≈ 72 µM) | 64 µg/mL (≈ 144 µM) | 32 µg/mL (≈ 72 µM) | 4 µg/mL (≈ 9 µM) | > 128 µg/mL | 32 µg/mL (≈ 72 µM) | > 128 µg/mL | MIC ([10]; M. bovigenitalium ATCC 14173, 6 days at 37° C, read-out: MIC): 0.5 µg/mL (≈ 1.12 µM); MIC [22]: 16 µg/mL (≈ 36 µM); MIC [23]: 8 µg/mL (≈ 18 µM); MIC [24]: 64 µg/mL (≈ 144 µM); MIC [25]: > 128 µg/mL; MIC [26]: > 128 µg/mL; MIC [27]: 32 µg/mL (≈ 72 µM); MIC [28]: 10 µg/mL (≈ 22.5 µM); MIC [29]: > 80 µg/mL; MIC [30]: 10 µg/mL (≈ 22.5 µM); MIC [31]: 5 µg/mL (≈ 11.2 µM); MIC [32]: 10 µg/mL (≈ 22.5 µM); MIC [33]: > 80 µg/mL
CC(=Cc1noc(-c2ccccc2)n1)CC1OCC(CC2OC2C(C)C(C)O)C(O)C1O (stereo not drawn) [Example 17, 3-(1-Normon-2-yl)-5-phenyl-1,2,4-oxadiazole] | 1 µg/mL (≈ 2.25 µM) | 2.5 µg/mL (≈ 5.62 µM) | 2.5 µg/mL (≈ 5.62 µM) | 0.625 µg/mL (≈ 1.41 µM) | 1.25 µg/mL (≈ 2.81 µM) | > 80 µg/mL | 0.5 µg/mL (≈ 1.12 µM) | 40 µg/mL (≈ 90 µM) | 2.5 µg/mL (≈ 5.62 µM) | > 128 µg/mL | 8 µg/mL (≈ 18 µM) | > 128 µg/mL | > 128 µg/mL | 4 µg/mL (≈ 9 µM) | 8 µg/mL (≈ 18 µM) | 4 µg/mL (≈ 9 µM) | 1 µg/mL (≈ 2.25 µM) | > 128 µg/mL | 4 µg/mL (≈ 9 µM) | > 128 µg/mL | MIC [10]: 0.1 µg/mL (≈ 0.225 µM); MIC [22]: 4 µg/mL (≈ 9 µM); MIC [23]: 4 µg/mL (≈ 9 µM); MIC [24]: 16 µg/mL (≈ 36 µM); MIC [25]: > 128 µg/mL; MIC [26]: > 128 µg/mL; MIC [27]: 2 µg/mL (≈ 4.5 µM); MIC [28]: 2.5 µg/mL (≈ 5.62 µM); MIC [29]: 80 µg/mL (≈ 180 µM); MIC [30]: 2.5 µg/mL (≈ 5.62 µM); MIC [31]: 1 µg/mL (≈ 2.25 µM); MIC [32]: 5 µg/mL (≈ 11.2 µM); MIC [33]: > 80 µg/mL
